Results: ChEMBL document CHEMBL5226360, “Pseudoprolines as stereoelectronically tunable proline isosteres” (Bioorg Med Chem Lett, 2022)
Each block holds one compound with its values, some of them ahead of it. Starred links: 1 amine or outer side, 2 acyl side, 3 side chain; linkers in the order of their positions; H or OH if unused. Non-standard residues stand in square brackets, D forms with d. Residues, ends and D or L forms follow the SMILES beside them. X3 = O=C1C[C@](Cc2ccc(O)cc2)(N[*:1])[C@@H]2SC[C@@H](C(=O)[*:2])N12; X4 = O=C1C[C@](Cc2ccc(O)cc2)(N[*:1])[C@H]2SC[C@@H](C(=O)[*:2])N12; X1 = CC1(C)SC[C@@H](C(=O)[*:2])N1[*:1]; X2 = CC1(C)OC[C@@H](C(=O)[*:2])N1[*:1]; Thz = O=C(O)[C@@H]1CSCN1

Assays:
[1] = target: Human immunodeficiency virus type 1 protease (Human immunodeficiency virus 1, UniProt Q72874); assay: Inhibition of HIV1 protease
[2] = Octanol-water partition coefficient, logP of the compound; assay type: physicochemical
Dipeptidyl peptidase 4 = Dipeptidyl peptidase 4 (Homo sapiens, UniProt P27487); assay: Inhibition of DPP4 (unknown origin)
Dipeptidyl peptidase 4, sequence (P27487 whole entry): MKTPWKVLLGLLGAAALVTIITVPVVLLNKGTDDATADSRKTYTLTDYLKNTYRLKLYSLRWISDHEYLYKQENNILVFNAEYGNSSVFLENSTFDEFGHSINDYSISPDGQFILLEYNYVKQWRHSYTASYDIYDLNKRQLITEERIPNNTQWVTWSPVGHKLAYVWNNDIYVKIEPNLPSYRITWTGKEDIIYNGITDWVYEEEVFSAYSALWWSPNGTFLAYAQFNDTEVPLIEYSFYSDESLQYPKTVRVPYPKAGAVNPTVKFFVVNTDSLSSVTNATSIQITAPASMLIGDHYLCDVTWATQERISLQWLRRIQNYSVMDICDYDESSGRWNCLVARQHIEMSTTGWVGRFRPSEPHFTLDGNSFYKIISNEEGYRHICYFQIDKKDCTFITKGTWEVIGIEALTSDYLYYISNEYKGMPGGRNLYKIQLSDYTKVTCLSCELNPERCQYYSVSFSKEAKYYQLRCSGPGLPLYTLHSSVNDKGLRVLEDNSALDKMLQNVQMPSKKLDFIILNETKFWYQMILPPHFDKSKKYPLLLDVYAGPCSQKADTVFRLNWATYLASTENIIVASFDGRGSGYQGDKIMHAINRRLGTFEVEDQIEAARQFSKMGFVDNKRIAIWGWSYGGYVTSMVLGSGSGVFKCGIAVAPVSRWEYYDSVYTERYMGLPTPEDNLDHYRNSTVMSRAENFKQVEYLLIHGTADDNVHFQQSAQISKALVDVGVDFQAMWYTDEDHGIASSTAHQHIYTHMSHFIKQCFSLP

[3] = Oral bioavailability in rat at 10 mg/kg; assay type: ADME, organism-based; conditions: in vivo
[4] = Oral bioavailability in dog at 3 mg/kg; assay type: ADME, organism-based, Canis lupus familiaris; conditions: in vivo
[5] = Oral bioavailability in monkey at 3 mg/kg; assay type: ADME, organism-based, Macaca mulatta; conditions: rhesus monkey, in vivo
Periplaneta americana [6] = assay: Diuretic activity in Periplaneta americana assessed as hindgut contraction incubated for 5 mins by myotropic assay; assay type: functional
Periplaneta americana [7] = assay: Diuretic activity in Periplaneta americana assessed as hindgut contraction by measuring maximal response incubated for 5 mins by myotropic assay relative to control; assay type: functional
Periplaneta americana [8] = assay: Diuretic activity in Periplaneta americana assessed as hindgut contraction by measuring lasting time incubated for 5 mins by myotropic assay; assay type: functional
[9] = target: T1, Type-1 angiotensin II receptor A (Rattus norvegicus, UniProt P25095); assay: Displacement of [I125I]AngII form AT1 receptor in rat liver membrane incubated for 1.5 hrs by gamma counting method; assay type: cell membranes
T1 sequence (P25095 whole entry): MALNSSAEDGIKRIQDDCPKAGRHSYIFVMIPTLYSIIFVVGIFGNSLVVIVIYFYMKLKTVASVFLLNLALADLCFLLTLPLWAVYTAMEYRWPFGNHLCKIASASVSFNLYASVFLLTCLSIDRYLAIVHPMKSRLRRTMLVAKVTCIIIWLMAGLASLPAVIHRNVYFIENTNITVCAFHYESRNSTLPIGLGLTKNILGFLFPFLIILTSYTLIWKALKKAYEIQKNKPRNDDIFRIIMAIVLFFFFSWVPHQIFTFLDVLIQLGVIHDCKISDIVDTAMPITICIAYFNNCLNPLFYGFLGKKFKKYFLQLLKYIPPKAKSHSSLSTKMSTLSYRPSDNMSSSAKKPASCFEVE

[10] = target: T2, Type-2 angiotensin II receptor (Rattus norvegicus, UniProt P35351); assay: Displacement of [I125I]AngII form AT2 receptor in rat liver membrane incubated for 1.5 hrs by gamma counting method; assay type: cell membranes
T2 sequence (P35351 whole entry): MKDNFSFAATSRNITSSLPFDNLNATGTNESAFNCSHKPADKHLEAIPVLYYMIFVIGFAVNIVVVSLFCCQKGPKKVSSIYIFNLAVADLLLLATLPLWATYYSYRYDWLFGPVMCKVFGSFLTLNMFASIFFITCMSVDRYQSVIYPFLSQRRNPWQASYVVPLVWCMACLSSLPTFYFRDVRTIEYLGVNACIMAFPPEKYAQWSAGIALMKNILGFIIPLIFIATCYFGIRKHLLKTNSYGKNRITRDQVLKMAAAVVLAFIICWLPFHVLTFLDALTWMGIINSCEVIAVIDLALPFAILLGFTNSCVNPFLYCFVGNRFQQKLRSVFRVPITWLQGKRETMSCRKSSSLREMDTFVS

[11] = target: Neurotensin receptor type 2 (Homo sapiens, UniProt O95665); assay: Inhibition of human NTR2
Neurotensin receptor type 2, sequence (O95665 whole entry): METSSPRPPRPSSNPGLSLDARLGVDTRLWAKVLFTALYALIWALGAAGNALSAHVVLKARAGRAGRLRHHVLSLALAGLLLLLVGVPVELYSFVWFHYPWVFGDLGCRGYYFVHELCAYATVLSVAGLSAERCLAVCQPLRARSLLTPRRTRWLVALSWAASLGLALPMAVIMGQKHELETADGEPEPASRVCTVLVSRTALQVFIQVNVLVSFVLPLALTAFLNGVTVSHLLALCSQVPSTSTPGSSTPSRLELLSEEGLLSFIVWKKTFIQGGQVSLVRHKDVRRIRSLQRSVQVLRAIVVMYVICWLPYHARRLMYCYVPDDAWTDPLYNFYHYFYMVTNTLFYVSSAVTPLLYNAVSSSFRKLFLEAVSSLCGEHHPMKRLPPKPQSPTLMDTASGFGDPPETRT

[12] = target: Angiotensin-converting enzyme (Homo sapiens, UniProt P12821); assay: Inhibition of ACE (unknown origin)
Angiotensin-converting enzyme, sequence (P12821 whole entry): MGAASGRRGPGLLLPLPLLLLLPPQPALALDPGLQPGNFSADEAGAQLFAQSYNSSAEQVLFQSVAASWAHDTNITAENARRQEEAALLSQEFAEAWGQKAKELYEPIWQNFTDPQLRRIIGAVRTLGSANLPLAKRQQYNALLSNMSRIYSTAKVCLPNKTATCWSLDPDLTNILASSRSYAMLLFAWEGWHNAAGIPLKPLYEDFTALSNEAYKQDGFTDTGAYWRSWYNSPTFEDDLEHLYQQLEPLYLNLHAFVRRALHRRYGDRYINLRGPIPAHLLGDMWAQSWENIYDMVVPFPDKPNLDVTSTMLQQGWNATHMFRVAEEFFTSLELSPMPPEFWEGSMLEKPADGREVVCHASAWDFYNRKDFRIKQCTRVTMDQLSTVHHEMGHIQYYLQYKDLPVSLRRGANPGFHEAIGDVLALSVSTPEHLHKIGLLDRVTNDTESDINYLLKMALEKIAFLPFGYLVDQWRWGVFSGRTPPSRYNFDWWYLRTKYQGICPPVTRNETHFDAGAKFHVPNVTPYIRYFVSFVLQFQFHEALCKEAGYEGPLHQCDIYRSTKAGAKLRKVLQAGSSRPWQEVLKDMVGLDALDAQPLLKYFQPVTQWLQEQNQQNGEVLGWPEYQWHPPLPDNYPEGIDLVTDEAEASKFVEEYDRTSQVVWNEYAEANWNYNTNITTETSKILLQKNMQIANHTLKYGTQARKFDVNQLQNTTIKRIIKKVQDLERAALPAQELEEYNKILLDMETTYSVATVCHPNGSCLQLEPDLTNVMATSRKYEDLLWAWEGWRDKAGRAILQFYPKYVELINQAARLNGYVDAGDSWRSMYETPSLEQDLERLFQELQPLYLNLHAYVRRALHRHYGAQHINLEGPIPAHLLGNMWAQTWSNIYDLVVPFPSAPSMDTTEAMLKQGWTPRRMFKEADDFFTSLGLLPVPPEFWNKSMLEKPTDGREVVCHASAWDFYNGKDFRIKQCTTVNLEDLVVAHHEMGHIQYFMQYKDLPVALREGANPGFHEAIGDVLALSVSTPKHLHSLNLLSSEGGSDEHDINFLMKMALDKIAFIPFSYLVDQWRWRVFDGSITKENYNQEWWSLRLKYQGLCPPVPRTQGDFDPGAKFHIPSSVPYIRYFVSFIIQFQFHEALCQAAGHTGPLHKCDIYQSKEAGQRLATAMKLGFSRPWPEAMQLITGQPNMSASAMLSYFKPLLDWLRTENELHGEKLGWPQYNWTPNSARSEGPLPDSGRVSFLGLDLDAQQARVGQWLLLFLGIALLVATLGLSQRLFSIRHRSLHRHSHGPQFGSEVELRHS

[13] = Half life in rat at 10 mg/kg, iv; assay type: ADME, organism-based; conditions: in vivo
[14] = Tmax in rat at 10 mg/kg, ID; assay type: ADME, organism-based; conditions: in vivo
[15] = Bioavailability in rat under fasted condition at 10 mg/kg, ID; assay type: ADME, organism-based; conditions: in vivo
[16] = Bioavailability in rat under fed condition at 10 mg/kg, ID; assay type: ADME, organism-based; conditions: in vivo
[17] = target: D(2) dopamine receptor (Homo sapiens) (UniProt P14416); conditions: dose 1.0 10^-8M
D(2) dopamine receptor (Homo sapiens), sequence (P14416 whole entry): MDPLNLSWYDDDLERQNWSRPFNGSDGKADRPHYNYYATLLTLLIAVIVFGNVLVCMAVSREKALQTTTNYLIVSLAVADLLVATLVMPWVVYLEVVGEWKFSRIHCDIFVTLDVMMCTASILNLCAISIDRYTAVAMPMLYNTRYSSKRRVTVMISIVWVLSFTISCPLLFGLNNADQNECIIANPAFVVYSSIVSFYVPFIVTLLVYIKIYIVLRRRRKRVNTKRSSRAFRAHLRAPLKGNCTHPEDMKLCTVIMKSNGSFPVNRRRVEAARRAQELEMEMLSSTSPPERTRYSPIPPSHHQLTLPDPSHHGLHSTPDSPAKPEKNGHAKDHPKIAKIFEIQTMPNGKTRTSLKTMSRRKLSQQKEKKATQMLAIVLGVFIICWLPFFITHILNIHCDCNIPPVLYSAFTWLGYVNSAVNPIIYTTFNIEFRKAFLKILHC

[18] = Oral bioavailability in rat at 2 mg/kg; assay type: ADME, organism-based; conditions: in vivo
[19] = Half life in rat at 2 mg/kg, po; assay type: ADME, organism-based; conditions: in vivo
[20] = target: D(2) dopamine receptor (Homo sapiens) (UniProt P14416); conditions: dose 1.0 10^-7M
Prolyl endopeptidase = target: T3, Prolyl endopeptidase (Homo sapiens, UniProt P48147); assay: Inhibition of POP (unknown origin)
T3 sequence (P48147 whole entry): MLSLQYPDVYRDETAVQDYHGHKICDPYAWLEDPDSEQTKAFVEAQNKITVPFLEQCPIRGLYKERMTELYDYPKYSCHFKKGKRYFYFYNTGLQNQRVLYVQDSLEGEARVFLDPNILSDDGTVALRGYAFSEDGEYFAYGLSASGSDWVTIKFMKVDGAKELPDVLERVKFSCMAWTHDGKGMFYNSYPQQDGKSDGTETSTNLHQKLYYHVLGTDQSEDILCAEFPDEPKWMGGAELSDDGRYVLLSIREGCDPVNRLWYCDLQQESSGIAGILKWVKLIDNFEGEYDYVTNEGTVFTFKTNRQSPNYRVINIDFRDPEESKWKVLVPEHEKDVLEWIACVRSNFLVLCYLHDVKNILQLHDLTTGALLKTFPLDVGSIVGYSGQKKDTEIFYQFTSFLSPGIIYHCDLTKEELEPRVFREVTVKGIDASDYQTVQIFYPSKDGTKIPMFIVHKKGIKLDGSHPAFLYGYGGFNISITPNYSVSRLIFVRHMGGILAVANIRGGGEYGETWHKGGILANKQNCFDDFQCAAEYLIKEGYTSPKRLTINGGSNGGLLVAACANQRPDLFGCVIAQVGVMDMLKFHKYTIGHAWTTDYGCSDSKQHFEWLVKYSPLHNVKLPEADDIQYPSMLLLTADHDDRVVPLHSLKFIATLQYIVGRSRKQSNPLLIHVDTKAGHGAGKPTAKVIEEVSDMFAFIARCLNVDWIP

[21] = Metabolic stability in pooled human liver microsomes assessed as parent compound remaining measured after 1 hr; assay type: ADME, Microsome; conditions: read-out: Stability
[22] = Clearance in rat at 10 mg/kg, iv; assay type: ADME, organism-based; conditions: in vivo
[23] = Clearance in dog at 3 mg/kg, iv; assay type: ADME, organism-based, Canis lupus familiaris; conditions: in vivo
[24] = Clearance in monkey at 3 mg/kg, iv; assay type: ADME, organism-based, Macaca mulatta; conditions: rhesus monkey, in vivo
[25] = Half life in rat at 10 mg/kg, po or iv; assay type: ADME, organism-based; conditions: in vivo
[26] = Half life in dog at 3 mg/kg, po or iv; assay type: ADME, organism-based, Canis lupus familiaris; conditions: in vivo
[27] = Half life in monkey at 3 mg/kg, po or iv; assay type: ADME, organism-based, Macaca mulatta; conditions: rhesus monkey, in vivo
[28] = Volume of distribution at steady state in rat at 10 mg/kg, iv; assay type: ADME, organism-based; conditions: in vivo, read-out: Vdss
[29] = Volume of distribution at steady state in dog at 3 mg/kg, iv; assay type: ADME, organism-based, Canis lupus familiaris; conditions: in vivo, read-out: Vdss
[30] = Volume of distribution at steady state in monkey at 3 mg/kg, iv; assay type: ADME, organism-based, Macaca mulatta; conditions: rhesus monkey, in vivo, read-out: Vdss

Compound: O=C(O)[C@@H]1CCCN1C(=O)OCC1c2ccccc2-c2ccccc21
logP [2]: 0.094

Compound: CC[C@H](C)[C@H](NC(=O)[C@H](Cc1ccc(O)cc1)NC(=O)[C@@H]1C[Si](C)(C)CN1C(=O)[C@H](CCCCN)NC(=O)[C@@H](N)CCCCN)C(=O)N[C@@H](CC(C)C)C(=O)O
IC50 [11]: 5 nM

Compound: C[C@H](CS)C(=O)N1CCS[C@H]1C(=O)O
IC50 [12]: 832 nM

Compound: CC[C@H](C)[C@H](NC(=O)[C@H](Cc1ccc(O)cc1)NC(=O)[C@@H]1CCCN1C(=O)[C@H](CCCCN)NC(=O)[C@@H](N)CCCCN)C(=O)N[C@@H](CC(C)C)C(=O)O
IC50 [11]: 0.47 nM

Compound: NC(=O)[C@H]1CS[C@@H]2CC[C@]3(CCCN3C(=O)[C@@H]3CCCN3)C(=O)N12
inhibition [17]: 14.6%

Compound: C[C@H](CS)C(=O)N1CSC[C@H]1C(=O)O
IC50 [12]: 372 nM

Compound: C[Si]1(C)C[C@@H](C(=O)O)N(C(=O)OCC2c3ccccc3-c3ccccc32)C1
logP [2]: 1.3

Compound: CC(C)[C@H](Nc1ccc(CNC(=O)[C@@H]2CCCN2C(=O)C[C@H](N)Cc2cc(F)ccc2F)cc1)C(=O)O
IC50 (Dipeptidyl peptidase 4): 0.48 nM | bioavailability [18]: 1.2% | half-life [19]: 0.63 h

Compound: NC(=O)[C@@H]1CS[C@@H]2CC[C@]3(CCCN3C(=O)[C@@H]3CCCN3)C(=O)N21
inhibition [20]: 21.4%

Compound: N#C[C@@H]1CS[C@H]2C[C@H](NC(=O)OCc3ccccc3)C(=O)N12
IC50 (Prolyl endopeptidase): 100000 nM

Compound: CC(C)[C@@H](Nc1ccc(CNC(=O)[C@@H]2SCCN2C(=O)C[C@H](N)Cc2cc(F)c(F)cc2F)cc1)C(=O)O
remaining at 1 h [21]: 98.9% | bioavailability [3]: < 2.5% | bioavailability [4]: < 2.5% | bioavailability [5]: < 2.5% | clearance [22]: 16.7 mL/min/kg | clearance [23]: 16.7 mL/min/kg | clearance [24]: 16.7 mL/min/kg | half-life [25]: > 3 h | half-life [26]: > 3 h | half-life [27]: > 3 h | Vd [28]: 0.3 L/kg | Vd [29]: 0.3 L/kg | Vd [30]: 0.3 L/kg

Now from value to compound, other results behind:

IC50 [1]: 89 nM
Compound: CC(C)(C)NC(=O)[C@@H]1CCCN1C(=O)[C@@H](O)[C@H](Cc1ccccc1)NC(=O)[C@H](CC(N)=O)NC(=O)OCc1ccccc1

IC50 (Dipeptidyl peptidase 4): 0.3 nM | bioavailability [3]: < 2.5% | bioavailability [4]: < 2.5% | bioavailability [5]: < 2.5%
Compound: CC(C)[C@H](Nc1ccc(CNC(=O)[C@@H]2CSCN2C(=O)C[C@H](N)Cc2cc(F)ccc2F)cc1)C(=O)O

EC50 (Periplaneta americana [6]): 0.794 nM
Compound: NC(=O)CNC(=O)[C@H](Cc1c[nH]c2ccccc12)NC(=O)[C@@H]1CCCN1C(=O)[C@H](Cc1ccccc1)NC(=O)[C@@H](N)Cc1ccccc1 (H-FFPWG-NH2)
Activity (Periplaneta americana [7]): 66.8% | Time (Periplaneta americana [8]): 72 s

Ki [9]: > 10000 nM | Ki [10]: 3.7 nM
Compound: CC(C)C[C@H](NC(=O)[C@H](CCCNC(=N)N)NC(=O)[C@@H](N)CC(=O)O)C(=O)N[C@@]1(Cc2ccc(O)cc2)CC(=O)N2[C@H](C(=O)N[C@@H](Cc3c[nH]cn3)C(=O)N3CCC[C@H]3C(=O)N[C@@H](Cc3ccccc3)C(=O)O)CS[C@@H]21 (H-DRL[X4]HPF-OH)

IC50 [1]: 31 nM
Compound: CC(C)(C)NC(=O)[C@@H]1CSCN1C(=O)[C@@H](O)[C@H](Cc1ccccc1)NC(=O)[C@H](CC(N)=O)NC(=O)OCc1ccccc1

EC50 (Periplaneta americana [6]): 0.736 nM
Compound: NC(=O)CNC(=O)[C@H](Cc1c[nH]c2ccccc12)NC(=O)[C@@H]1CSCN1C(=O)[C@H](Cc1ccccc1)NC(=O)[C@@H](N)Cc1ccccc1 (H-FF[Thz]WG-NH2)
Activity (Periplaneta americana [7]): 71.5% | Time (Periplaneta americana [8]): 78 s

IC50 [1]: 2.8 nM
Compound: CC(C)(C)NC(=O)[C@H]1N(C(=O)[C@@H](O)[C@H](Cc2ccccc2)NC(=O)[C@H](CC(N)=O)NC(=O)COc2cccc3ccccc23)CSC1(C)C

half-life [13]: 1.55 h | Tmax [14]: 1 h | bioavailability [15]: 33% | bioavailability [16]: 33%
Compound: Cc1ccccc1CNC(=O)[C@H]1N(C(=O)[C@@H](O)[C@H](Cc2ccccc2)NC(=O)c2cccc(O)c2C)CSC1(C)C

Ki [9]: > 10000 nM | Ki [10]: 1 nM
Compound: CC(C)C[C@H](NC(=O)[C@H](CCCNC(=N)N)NC(=O)[C@@H](N)CC(=O)O)C(=O)N[C@@]1(Cc2ccc(O)cc2)CC(=O)N2[C@H]1SC[C@H]2C(=O)N[C@@H](Cc1c[nH]cn1)C(=O)N1CCC[C@H]1C(=O)N[C@@H](Cc1ccccc1)C(=O)O (H-DRL[X3]HPF-OH)

IC50 [1]: 8.8 nM
Compound: CC(C)(C)NC(=O)[C@@H]1CSCN1C(=O)[C@@H](O)[C@H](Cc1ccccc1)NC(=O)[C@H](CC(N)=O)NC(=O)COc1cccc2ccccc12

EC50 (Periplaneta americana [6]): 0.614 nM
Compound: CC1(C)OC[C@@H](C(=O)N[C@@H](Cc2c[nH]c3ccccc23)C(=O)NCC(N)=O)N1C(=O)[C@H](Cc1ccccc1)NC(=O)[C@@H](N)Cc1ccccc1 (H-FF[X2]WG-NH2)
Activity (Periplaneta americana [7]): 120.1% | Time (Periplaneta americana [8]): 120 s

EC50 (Periplaneta americana [6]): 0.708 nM
Compound: CC1(C)SC[C@@H](C(=O)N[C@@H](Cc2c[nH]c3ccccc23)C(=O)NCC(N)=O)N1C(=O)[C@H](Cc1ccccc1)NC(=O)[C@@H](N)Cc1ccccc1 (H-FF[X1]WG-NH2)
Activity (Periplaneta americana [7]): 100.6% | Time (Periplaneta americana [8]): 108 s

IC50 [1]: 6.5 nM | Ki [1]: 0.74 nM
Compound: CSC[C@H](NC(=O)COc1cccc2cnccc12)C(=O)N[C@@H](Cc1ccccc1)[C@H](O)C(=O)N1CSC[C@H]1C(=O)NC(C)(C)C
